In US11051516B2, “Antimicrobial sanitizer compositions and their use” (GFS CORPORATION AUS PTY LTD, priority 2014, dated 2021):

Tested on: Escherichia coli K12 NCTC 10538
Test: Hygienic Handrub test BS EN 1500:2013 on human volunteers' hands
Assay type: in vivo
Protocol: The composition of Example 2 was tested for compliance with requirements for chemical disinfectants and antiseptics in accordance with European Standard BS EN 1500:2013 Chemical Disinfectants and Antiseptics—Hygienic Handrub—Test Method and Requirements. The test organism was Escherichia coli K12 NCTC 10538 which was obtained as a freeze dried ampoule and was reconstituted using Tryptone Soy Broth and incubated to achieve a concentration of 2×10^9 Cfu/mL. The reference standard was propan-2-ol 60% v/v solution in sterile water. There were no deviations from the standard test method.
Human volunteer's hands were washed for 1 minute with diluted soft soap (5 mL), rinsed in running water and dried with a paper towel for at least 30 seconds. The hands were immersed up to the mid-metacarpals for five seconds and the liquid was allowed to drain back into the container for a maximum of 30 seconds before allowing to air dry for three minutes.
The reference standard (3.0 mL) was applied and rubbed for 30 seconds. This was repeated with a second portion of reference standard (3.0 mL) and rubbing for a further 30 seconds. This procedure was repeated for 20 volunteers.
This protocol was repeated on 20 volunteers using the composition of Example 2.
The protocol of Example 16 was repeated for the composition of Example 4.

For `CC(C)O` [reference standard, propan-2-ol], the “Mean Log Reduction Factor” value (Example 16, 20 volunteers, 2 x 3.0 mL, rubbed 30 seconds each) was 3.89 and the “Mean Log Reduction Factor” value (Example 17, protocol of Example 16 repeated) was 3.90.
